Earlier results on one compound are cited in patent US20250032463A1, “RAPAMYCIN-CONTAINING PHARMACEUTICAL COMPOSITION” (NOBELPHARMA CO., LTD., priority 2023, published 2025).

Structures are written as SMILES.

Consider `CO[C@H]1C[C@@H]2CC[C@@H](C)[C@@](O)(O2)C(=O)C(=O)N2CCCC[C@H]2C(=O)O[C@H]([C@H](C)C[C@@H]2CC[C@@H](O)[C@H](OC)C2)CC(=O)[C@H](C)/C=C(\C)[C@@H](O)[C@@H](OC)C(=O)[C@H](C)C[C@H](C)/C=C/C=C/C=C/1C` [rapamycin, Rapamycin], for which the “stability in aqueous solvents” value is “unstable”.
